Measurements: the supplement of paper PMC10331698
± gives the standard deviation of the averaged measurements.

Assays:
Assay in all cases: level (log10 ratio to DMSO vehicle control); higher = higher biomarker level / cell amount than vehicle control
[1] = compound: C=CC(=O)OCCC(F)(F)C(F)(F)C(F)(F)C(F)(F)C(F)(F)C(F)(F)C(F)(F)C(F)(F)F [8:2 Fluorotelomer acrylate]; conditions: in DMSO
Method: (§1)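 BioMAP Diversity Plus panel of 12 human primary cell co-culture systems (3C, 4H, LPS, SAg, BT, BF4T, BE3C, CASM3C, HDF3CGF, KF3CT, MyoF, Mphg). Compounds were added 1 h before stimulation and left for 24 h (MyoF 48 h; BT 72 h for soluble read-outs or 6 d for IgG). Biomarkers were read by ELISA, cytotoxicity by SRB, PBMC viability and proliferation by Alamar Blue. Each well value was divided by the mean of 8 DMSO control wells on the same plate and log10 transformed; duplicate blinded samples were tested at 4 concentrations.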

[2] = compound: O=C(O)C(F)(F)C(F)(F)C(F)(F)C(F)(F)C(F)(F)C(F)(F)C(F)(F)F [Ammonium perfluorooctanoate]; conditions: in DMSO
Method: as §1

[3] = compound: OCCC(F)(F)C(F)(F)C(F)(F)C(F)(F)C(F)(F)C(F)(F)C(F)(F)C(F)(F)F [8:2 Fluorotelomer alcohol]; conditions: 6700 nM; in DMSO
Method: as §1

Tetrafluorosuccinic acid = compound: O=C(O)C(F)(F)C(F)(F)C(=O)O [Tetrafluorosuccinic acid]; conditions: in DMSO
Method: as §1

[4] = compound: O=S(=O)(OCC(F)(F)F)C(F)(F)C(F)(F)C(F)(F)C(F)(F)F [2,2,2-Trifluoroethyl perfluorobutanesulfonate]; conditions: in DMSO
Method: as §1

Perfluorooctanoic acid = compound: O=C(O)C(F)(F)C(F)(F)C(F)(F)C(F)(F)C(F)(F)C(F)(F)C(F)(F)F [Perfluorooctanoic acid]; conditions: in DMSO
Method: as §1

[5] = compound: OCC(F)(F)C(F)(F)C(F)(F)C(F)(F)C(F)(F)C(F)(F)C(F)(F)C(F)(F)C(F)(F)C(F)(F)C(F)(F)F [11:1 Fluorotelomer alcohol]; conditions: in DMSO
Method: as §1

| Test System | level (log10) ([1]; 6700 nM) | level (log10) ([1]; 20000 nM) | level (log10) ([1]; 60000 nM) | level (log10) ([2]; 6700 nM) | level (log10) ([2]; 20000 nM) | level (log10) ([2]; 60000 nM) | level (log10) [3] | level (log10) (Tetrafluorosuccinic acid; 6700 nM) | level (log10) (Tetrafluorosuccinic acid; 20000 nM) | level (log10) (Tetrafluorosuccinic acid; 60000 nM) | level (log10) ([4]; 6700 nM) | level (log10) ([4]; 20000 nM) | level (log10) ([4]; 60000 nM) | level (log10) (Perfluorooctanoic acid; 6700 nM) | level (log10) (Perfluorooctanoic acid; 20000 nM) | level (log10) (Perfluorooctanoic acid; 60000 nM) | level (log10) ([5]; 1100 nM) | level (log10) ([5]; 3300 nM) | level (log10) ([5]; 10000 nM) |
| --- | --- | --- | --- | --- | --- | --- | --- | --- | --- | --- | --- | --- | --- | --- | --- | --- | --- | --- | --- |
| CASM3C:CD106/VCAM-1 | -0.033 ± 0.0042 | -0.039 ± 0.037 | 0.004 ± 0.025 | 0.0115 ± 0.015 | -0.0085 ± 0.013 | -0.021 ± 0.025 | -0.0825 ± 0.015 | 0.0015 ± 0.0035 | -0.008 ± 0.027 | -0.0045 ± 0.0064 | -0.027 ± 0.014 | -0.038 ± 0.031 | -0.042 ± 0.083 | -0.033 ± 0.011 | -0.0165 ± 0.00071 | 0.019 ± 0.017 | -0.004 ± 0.024 | 0 ± 0.023 | -0.0105 ± 0.019 |
| CASM3C:SRB | -0.002 | 0.005 ± 0.0099 | 0.0085 ± 0.0064 | -0.0015 ± 0.00071 | -0.001 ± 0.0099 | -0.0005 ± 0.00071 | -0.014 ± 0.0057 | -0.012 ± 0.0028 | -0.005 ± 0.0014 | -0.0105 ± 0.005 | -0.006 | -0.005 ± 0.0028 | -0.0055 ± 0.0064 | -0.005 ± 0.0042 | 0.0005 ± 0.00071 | 0.0095 ± 0.00071 | 0.0075 ± 0.005 | 0.0095 ± 0.0064 | 0.008 ± 0.0071 |
| HDF3CGF:CD106/VCAM-1 | 0.0005 ± 0.022 | 0.011 ± 0.0071 | 0.007 ± 0.0085 | -0.0315 ± 0.011 | -0.0065 ± 0.023 | -0.037 ± 0.0071 | -0.0265 ± 0.015 | 0.003 ± 0.027 | -0.029 ± 0.037 | -0.033 ± 0.045 | -0.022 ± 0.0099 | -0.05 ± 0.034 | -0.114 ± 0.037 | -0.0055 ± 0.005 | -0.011 ± 0.017 | -0.024 ± 0.013 | -0.075 ± 0.011 | -0.144 ± 0.013 | -0.069 ± 0.075 |
| HDF3CGF:SRB | -0.02 ± 0.0071 | -0.0305 ± 0.037 | 0.003 ± 0.0014 | 0.057 ± 0.055 | 0.078 ± 0.0099 | 0.0945 ± 0.047 | -0.0335 ± 0.035 | -0.0125 ± 0.011 | -0.013 ± 0.03 | 0.007 ± 0.044 | 0.0205 ± 0.012 | 0.0125 ± 0.029 | 0.0325 ± 0.035 | -0.0075 ± 0.026 | 0.0325 ± 0.043 | -0.0245 ± 0.056 | -0.0055 ± 0.011 | -0.0055 ± 0.016 | 0.0315 ± 0.036 |
| KF3CT:SRB | -0.0005 ± 0.005 | 0.002 ± 0.0085 | 0.0105 ± 0.013 | -0.0125 ± 0.0035 | -0.0115 ± 0.0021 | -0.0195 ± 0.0021 | 0.0075 ± 0.0064 | -0.012 | -0.0005 ± 0.0078 | 0.001 ± 0.0042 | -0.001 | -0.0045 ± 0.0021 | -0.0025 ± 0.0092 | -0.005 ± 0.0014 | -0.003 ± 0.0014 | 0.007 ± 0.037 | -0.01 ± 0.0057 | -0.0285 ± 0.005 | -0.014 ± 0.0057 |
| HDF3CGF:EGFR | -0.003 ± 0.041 | -0.028 ± 0.031 | 0.006 ± 0.011 | -0.095 ± 0.14 | -0.005 ± 0.05 | -0.105 ± 0.087 | 0.037 ± 0.0085 | -0.0065 ± 0.033 | -0.008 ± 0.0028 | 0.029 ± 0.038 | -0.0215 ± 0.077 | -0.022 ± 0.09 | 0.047 ± 0.03 | -0.065 ± 0.086 | -0.086 ± 0.028 | -0.0965 ± 0.044 | 0.034 ± 0.024 | 0.044 ± 0.064 | 0.0275 ± 0.083 |
| lMphg:CD40 | -0.014 ± 0.025 | -0.0065 ± 0.0078 | -0.0225 ± 0.021 | 0.0115 ± 0.053 | -0.0145 ± 0.0092 | -0.0585 ± 0.023 | -0.0275 ± 0.0035 | -0.0125 ± 0.015 | -0.011 ± 0.0014 | 0.009 ± 0.014 | -0.0015 ± 0.00071 | 0.0085 ± 0.04 | -0.007 ± 0.017 | -0.0035 ± 0.021 | -0.021 ± 0.0057 | -0.018 ± 0.014 | 0.0005 ± 0.036 | 0.005 ± 0.042 | -0.357 ± 0.028 |
